The source of these data is patent US20230119479A1, “A HISTONE DEACETYLASE INHIBITOR HAVING A NITROGEN-CONTAINING AROMATIC HETEROCYCLYL GROUP” (SHIONOGI & CO., LTD., priority 2019, published 2023).

Series [1] addresses T1, HDAC2 Human recombinant C-terminal FLAG-tag (Homo sapiens, UniProt Q92769).
T1 construct: FLAG (C); purchased BPS Bioscience 50052
Kind of series: Measurement of HDAC2 enzyme inhibitory activity (HTRF). The series is classed as biochemical. Conditions: recombinant HDAC2, H3K9ac peptide, 3 hours room temperature; read-out: HDAC2 IC50. The gist of the method:
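Compounds were tested at 8 points in 3-fold dilutions from 99 μM final (n=2) against FLAG-tagged HDAC2 with biotinylated H3K9ac (1-21) peptide (0.6 μM as added). The reaction ran 3 h at room temperature in Tris pH 8.0 buffer, then was stopped with SAHA. Deacetylated product was detected by HTRF (Eu-anti-H3K9me0 antibody, streptavidin-XL665) as the 665/615-620 nm ratio.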

Series [2] has as its system HDACs other than HDAC2 (HDAC2 knockout K562 cells). Kind of series: Evaluation of HDAC2 selectivity: H3K9 histone acetylation in HDAC2 knockout K562 cells (AlphaLISA).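 Note: 0% inhibition equals DMSO-treated group.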 Conditions: Homo sapiens, maximum concentration 83.3 μM, 100% = SAHA-treated group, read-out: maximum inhibition rate (H3K9 histone acetylation). The series is classed as cell-based. The protocol:
Test Example 3: Evaluation of HDAC2 Selectivity
K562 cells were cultured in RPMI1640 medium (SIGMA, R8758) containing 10% FBS (Hyclone, SH30070.03) and 1% penicillin streptomycin (Nacalai Tesque, 26252-94). CompoZr (registered trademark) Zinc Finger Nuclease (Merck) targeting HDAC2 sequences was transfected into K562 cells by electroporation using Nucleofector (Lonza). The cells after transfection were subjected to limiting dilution, and DNA sequencing was performed on the cell clones in which mutations were detected by the PCR method. Cell clones lacking a base number that was not a multiple of 3 in both alleles were identified, and a single-cell cloning was performed on the cell clones to produce HDAC2 knockout K562 cells. It was confirmed that the expression of HDAC2 was not detected by Western blotting in the prepared cells.
By evaluating the H3K9 histone acetylation-enhancing activity of the test compound using HDAC2 knockout K562 cells, the inhibitory activity against HDACs other than HDAC2 was evaluated.
HDAC2 knockout K562 cells stored in liquid nitrogen were thawed and cultured in RPMI1640 medium (Nacalai Tesque, 30264-85) for 2 to 4 days. Using Echo555 (Beckman Coulter), the test compound was dispensed to the assay plate (Corning, 4513) at 37.5 nL/well, and then HDAC2 knockout K562 cells were seeded to 125 cells/4.5 μL/well, and stirred. At this time, the test compound was treated at 8 points (n=2) in the 3-fold dilution series from the maximum concentration of 83.3 μM. After culturing at 37° C. and 5% CO2 overnight, 1.5 μL/well of Lysis buffer (PerkinElmer, AL009F1) was added, and after incubating at room temperature for 15 minutes, 3 μL/well of Extraction buffer (PerkinElmer, AL009F2) was added and the mixture was incubated for 10 minutes at room temperature. Then, 5× antibody solution (prepared by diluting anti-H3K9 Acceptor beads (PerkinElmer, AL114M) 75-fold with a detection buffer prepared by diluting 10×Cell-Histone Detection buffer (PerkinElmer, AL009F3) 10-fold with ultrapure water, and diluting Biotinylated anti H3 antibody (PerkinElmer, AL118M) diluted 150 times with the detection buffer) was added at 3 μL/well, and after incubating at room temperature for 60 minutes, then 5× donor beads solution (prepared by diluting Streptavidin Donor beads (PerkinElmer, 6760002) 75 fold with the detection buffer) was added at 3 μL/well, and the mixture was incubated again at room temperature for 60 minutes, and then the emission value was measured using PHERAstar (BMG LABTECH) (excitation=680 nm, […]). […] For cell toxicity, cell viability rate was evaluated by the PrestoBlue method.
For orientation: Alpha assays give light when donor and acceptor beads are brought close together.

Series [3] deals with T2, human ether-a-go-go related gene (hERG) channel (Homo sapiens, UniProt Q12809).
T2 construct: expressed in transfected cells; host or cells: CHO cells
In words: hERG test (whole cell patch clamp). The note with it: CHO cells expressing hERG; concentration not given. The series is classed as cell-based. An excerpt:
For the purpose of assessing risk of an electrocardiogram QT interval prolongation of the compound of the present invention, effects of the compound of the present invention on delayed rectifier K^+ current (IKr), which plays an important role in the ventricular repolarization process, was studied using CHO cells expressing human ether-a-go-go related gene (hERG) channel.
After a cell was retained at a membrane potential of −80 mV by whole cell patch clamp method using an automated patch clamp system (QPatch; Sophion Bioscience A/S) and gave a leak potential of −50 mV, IKr induced by depolarization pulse stimulation at +20 mV for 2 seconds, and further, repolarization pulse stimulation at −50 mV for 2 seconds, was recorded. A vehicle, which was the 0.1% dimethyle sulfoxide solution in extracellular solution (NaCl: 145 mmol/L, KCl: 4 mmol/L, CaCl2: 2 mmol/L, MgCl2: 1 mmol/L, glucose:10 mmol/L, HEPES (4-(2-hydroxyethyl)-1-piperazineethanesulfonic acid): 10 mmol/L, pH7.4), or the compound of the present invention had been dissolved at an objective concentration in the extracellular solution was applied to the cell at room temperature for 7 minutes or more. From the recording IKr, an absolute value of the tail peak current was measured based on the current value at the resting membrane potential using analysis software (QPatch assay software; Sophion Bioscience A/S). Further, the % inhibition of tail peak current for the compound of the present invention relative to the tail peak current after application of the vehicle was calculated to assess influence of the compound of the present invention on IKr. The dilution concentration and dilution solvent were changed as necessary.
A general note: The hERG channel carries a current that helps repolarise heart muscle cells.

The structures appear in SMILES notation.

T1 sequence (Q92769 whole entry): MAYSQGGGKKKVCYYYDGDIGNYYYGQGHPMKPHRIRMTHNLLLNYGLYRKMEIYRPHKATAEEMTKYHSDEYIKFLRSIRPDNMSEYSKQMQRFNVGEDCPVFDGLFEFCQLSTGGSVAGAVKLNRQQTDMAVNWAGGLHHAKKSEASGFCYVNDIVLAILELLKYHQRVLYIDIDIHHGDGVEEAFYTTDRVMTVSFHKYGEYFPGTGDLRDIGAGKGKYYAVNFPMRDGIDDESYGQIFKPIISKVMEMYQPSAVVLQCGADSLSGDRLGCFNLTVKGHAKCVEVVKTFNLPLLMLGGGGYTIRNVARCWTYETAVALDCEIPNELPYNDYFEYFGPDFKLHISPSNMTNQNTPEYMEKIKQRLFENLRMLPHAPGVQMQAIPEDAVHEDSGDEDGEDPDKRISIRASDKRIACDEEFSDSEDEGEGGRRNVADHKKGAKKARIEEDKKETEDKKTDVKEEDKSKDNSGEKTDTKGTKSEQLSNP
T2 sequence (Q12809 whole entry): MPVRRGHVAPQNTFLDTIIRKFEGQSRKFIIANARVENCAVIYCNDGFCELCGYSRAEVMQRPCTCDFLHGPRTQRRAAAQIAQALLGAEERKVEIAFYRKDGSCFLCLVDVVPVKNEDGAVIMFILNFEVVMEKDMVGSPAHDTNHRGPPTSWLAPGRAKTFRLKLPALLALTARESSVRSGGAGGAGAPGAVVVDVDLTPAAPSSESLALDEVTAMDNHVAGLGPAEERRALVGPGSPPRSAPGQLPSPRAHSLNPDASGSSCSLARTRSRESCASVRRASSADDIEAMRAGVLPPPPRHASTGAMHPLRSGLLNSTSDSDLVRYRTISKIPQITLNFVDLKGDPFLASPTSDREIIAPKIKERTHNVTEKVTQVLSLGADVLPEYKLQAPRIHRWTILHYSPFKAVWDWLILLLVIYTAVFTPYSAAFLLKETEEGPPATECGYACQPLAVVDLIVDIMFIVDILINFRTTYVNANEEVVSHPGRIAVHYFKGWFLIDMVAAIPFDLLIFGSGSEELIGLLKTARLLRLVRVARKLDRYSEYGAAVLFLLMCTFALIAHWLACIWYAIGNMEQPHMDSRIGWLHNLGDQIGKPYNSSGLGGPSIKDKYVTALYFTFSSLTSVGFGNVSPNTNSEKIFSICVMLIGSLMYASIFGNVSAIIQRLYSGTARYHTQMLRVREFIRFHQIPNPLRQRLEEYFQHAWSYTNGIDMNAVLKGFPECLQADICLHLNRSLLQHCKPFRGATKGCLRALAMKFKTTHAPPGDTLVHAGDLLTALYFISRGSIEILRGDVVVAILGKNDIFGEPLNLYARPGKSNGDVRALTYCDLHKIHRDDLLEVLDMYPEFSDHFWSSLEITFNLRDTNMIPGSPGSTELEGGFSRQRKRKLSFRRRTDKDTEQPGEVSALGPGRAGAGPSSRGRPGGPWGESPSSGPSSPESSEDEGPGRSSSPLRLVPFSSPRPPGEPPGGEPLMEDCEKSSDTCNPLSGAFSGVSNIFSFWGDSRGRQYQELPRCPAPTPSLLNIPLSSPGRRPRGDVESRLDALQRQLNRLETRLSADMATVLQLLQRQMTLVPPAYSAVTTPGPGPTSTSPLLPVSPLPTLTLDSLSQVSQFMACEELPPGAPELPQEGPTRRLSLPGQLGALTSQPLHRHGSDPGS

In general, IC50 refers to the concentration that gives 50% inhibition. Broadly, the inhibition is the drop in the measured response relative to a control, in per cent. For `C[C@H](F)COc1cnc(C(=O)Nc2cc(-c3ccc(F)nc3)ccc2N)cn1` (racemic) [Compound I-125], the IC50 in series [1] was 180 nM. Moreover, the inhibition at up to 83.3 µM in series [2] was 6%. Also, the “% inhibition of tail peak current (IKr)” value in series [3] was found to be 18.6%.
As for `Cn1cc(-c2cnc(C(=O)Nc3nc(-c4cccs4)ccc3N)cn2)cn1` [Compound I-017], in series [1], the IC50 was 220 nM. Moreover, the inhibition at up to 83.3 µM in series [2] was 5%.
On the same counts, the results for `Cn1cc(-c2cnc(C(=O)Nc3nc(-n4cccc4)ccc3N)cn2)cn1` [Compound I-023] are 180 nM and 8%.
In the case of `Cn1cc(-c2cnc(C(=O)Nc3cc(-c4ccc(F)nc4)ccc3N)cn2)cn1` [Compound I-080], the IC50 in series [1] came to 48 nM. The inhibition at up to 83.3 µM in series [2] was determined as 7%. Also, in series [3], the “% inhibition of tail peak current (IKr)” value is given as 9.5%.
Taken in the same sequence, the figures for `N#Cc1ccc(C(=O)Nc2cc(-c3ccc(F)nc3)ccc2N)nc1` [Compound I-092] were 250 nM, 6% and 30%.
With `CCOc1cnc(C(=O)Nc2cc(-c3ccc(F)nc3)ccc2N)cn1` [Compound I-118], in series [1], the IC50 was 140 nM. Moreover, the inhibition at up to 83.3 µM in series [2] was 8%. Moreover, the “% inhibition of tail peak current (IKr)” value in series [3] was 23.3%.
As for `Cn1cc(-c2ccc(N)c(NC(=O)c3cnc(C4CC4)cn3)c2)cn1` [Compound I-130], the IC50 in series [1] amounted to 140 nM. For the same compound, in series [3], the “% inhibition of tail peak current (IKr)” value was determined as 3.3%.
